From publication PMC7278359, “Small molecule AX-024 reduces T cell proliferation independently of CD3ϵ/Nck1 interaction, which is governed by a domain swap in the Nck1-SH3.1 domain” (The Journal of Biological Chemistry, 2020)
“Also recorded” adds a separate entry of the source.

What was measured:
monomeric Nck1-SH3.1 = assay: Ligand-observed NMR with monomeric Nck1-SH3.1; assay type: binding, human; details: 50 μM ligand, 10 μM monomeric Nck1-SH3.1 (residues 1–61), pH 6.5, 150 mM NaCl, 27 °C
Description: (§1) NMR spectra were recorded on a Bruker 600-MHz Avance NEO spectrometer equipped with a cryogenic QCI probe head at 27 °C in 25 mM […], 150 mM NaCl. The Topspin 4.0 software (Bruker, Fällanden) was used for spectrometer operation and data processing. For ^1H ligand-observed measurements, a relaxation filtered pulse sequence utilizing a spinlock of 50 ms was applied. 1D spectra were acquired with 128 scans, a sweep width of 26 ppm, and an acquisition time of 2 s. 2D ^1H-^15N HSQC spectra with natural ^15N isotope abundance were recorded over 72 h with a spectral width of 16 ppm and 35 ppm in the proton and nitrogen dimensions, respectively, with 256 increments (complex) and 1000 scans per increment. A relaxation delay of 1 s was used between scans. For the DOSY measurements (reviewed in Ref. [51]), the Bruker pulse sequence ledbpgp2s with a diffusion delay of 50 ms and a gradient length of 600 μs was used. The gradient strength was varied from 5 to 95% to record 16 increments of 512 scans with a sweep width of 18 ppm and a relaxation delay of 1 s.
(§2) Samples for ligand-observed measurements were prepared in 25 mM sodium phosphate buffer, pH 6.5, 150 mM NaCl. One sample contained 50 μM AX-024, and the other contained 50 μM CD3ϵ peptide.

dimeric Nck1-SH3.1 = assay: Ligand-observed NMR with dimeric Nck1-SH3.1; assay type: binding, human; details: 50 μM ligand, 10 μM dimeric Nck1-SH3.1 (residues 1–61), pH 6.5, 150 mM NaCl, 27 °C
Description: as §1, §2

[1] = test system: Zap70 phosphorylation in anti-CD3–stimulated T cells; details: ref [10]; cited from earlier work
Description: It was shown previously that Nck contributes to TCR signaling after weak stimulation of T cells. […] To obtain a strong dependence of TCR signaling on Nck, different stimulation conditions with low concentrations of anti-CD3 in the absence of co-stimulatory signals were assessed in the presence of AX-024 (Fig. 4). […] At the outset of this study, further development of AX-024, published as a PPI of the Nck1/CD3ϵ interaction ([10]), was anticipated. Unfortunately, we could not replicate all biological effects attributed to this compound. […] Whereas there is an inhibitory effect of AX-024 on T cell proli ...

α 1A adrenoreceptor = assay: Selectivity panel (Eurofins, CEREP); assay type: binding; details: 10 μM AX-024, single point; human receptor; radioactive antagonist ligand
Description: (§3) AX-024 was submitted to a selectivity panel comprising 50 recurring off-targets, including G protein–coupled receptors, channels, transporters, and metabolic enzymes (Eurofins, CEREP).
(§4) Supplemental Table 1: SPR peptide titrations
(§5) Single point measurements at 10 μM for 50 targets in a selectivity panel.
(§6) human receptors, except for the Ca2+ channel, which is from rat. A radioactive antagonist ligand was used
(§7) for the detection. The tests were conducted by Euro fins (https://www.eurofinsdiscoveryservices.com ).

Muscarinic M2 = assay: Selectivity panel (Eurofins, CEREP); assay type: binding; details: 10 μM AX-024, single point; human receptor; radioactive antagonist ligand
Description: as §3, §4, §5, §6, §7

Muscarinic M1 = assay: Selectivity panel (Eurofins, CEREP); assay type: binding; details: 10 μM AX-024, single point; human receptor; radioactive antagonist ligand
Description: as §3, §4, §5, §6, §7

Dopamine D1 = assay: Selectivity panel (Eurofins, CEREP); assay type: binding; details: 10 μM AX-024, single point; human receptor; radioactive antagonist ligand
Description: as §3, §4, §5, §6, §7

[2] = test system: Ca2+ channel (CaV1.2) (L, diltiazem site); assay: Selectivity panel (Eurofins, CEREP); assay type: binding; details: probe radioactive antagonist ligand, 10 μM AX-024, single point, rat Ca2+ channel
Description: as §3, §4, §5, §6, §7

Histamine H3 = assay: Selectivity panel (Eurofins, CEREP); assay type: binding; details: 10 μM AX-024, single point; human receptor; radioactive antagonist ligand
Description: as §3, §4, §5, §6, §7

5-HT2B = assay: Selectivity panel (Eurofins, CEREP); assay type: binding; details: 10 μM AX-024, single point; human receptor; radioactive antagonist ligand
Description: as §3, §4, §5, §6, §7

T cell proliferation = details: response to weak antigens; ref [10]; cited from earlier work
From the text: (§8) The objective of the present study was to initiate development of an inhibitor of the Nck/TCR interaction, specifically by blocking binding of the first SH3 domain in Nck (Nck1-SH3.1) to the PRS in the CD3ϵ subunit of the TCR.

Nck1-SH3.1 [3] = details: in vitro; ref [10]; cited from earlier work
From the text: as §8

Nck1-SH3.1 [4] = target: T1, Nck1-SH3.1 (Homo sapiens, UniProt P16333); assay: SPR binding to immobilized Nck1-SH3.1; details: AX-024 up to 100 μM; 1260 RU; 20 °C, pH 7.8
T1 construct: His10-Avi-TEV-Nck1-SH3.1 (residues 1–61, MM 11,847 Da) was biotinylated and immobilized via streptavidin; made in house; host or cells: Escherichia coli BL21 (DE3)
Description: SPR experiments were conducted on a T200 Biacore instrument (GE Healthcare, Uppsala, Sweden) at 20 °C in 10 mM HEPES/NaOH, pH 7.8, 150 mM NaCl, 1 mM TCEP. […] Streptavidin is immobilized on the CAP sensor by way of double-strand DNA formation. A ssDNA is covalently coupled to the sensor surface, and a complementary DNA strand, covalently linked to streptavidin, is hybridized. To regenerate the surface, the DNA duplex is dissociated by washing with high-ionic strength solution. […] The reference channel for binding studies contained the same streptavidin-coated surface blocked with biotin.
Five replicates were performed for each CD3ϵ concentration (Table S1), whereas for the qualitative assessment of the APVA variant, only a single titration was performed.
SPR equilibrium signals were corrected for the signal in the reference channel and buffer contributions. The resulting SPR amplitudes were plotted as a function of peptide concentration, and a simple binding equation describing a Langmuir adsorption isotherm was fit to the data (GraphPad Prism) to extract the equilibrium dissociation constant Kd. (Eq. 1) RU=RUmax·[peptide]/[peptide]+Kd

SMILES: COc1ccc2c(c1)C(c1ccc(F)cc1)=C(CN1CCCC1)CO2.Cl [AX-024, 1-((4-(4-fluorophenyl)-6-methoxy-2H-chromen-3-yl)methyl)pyrrolidine hydrochloride]
- ligand-observed NMR, spectral change / line broadening (monomeric Nck1-SH3.1): no binding of AX-024 was detected by NMR; also recorded: do not show any spectral changes
- ligand-observed NMR, spectral change / line broadening (dimeric Nck1-SH3.1): do not show any spectral changes; also recorded: no interaction was observed
- reduction of Zap70 phosphorylation [1]: reduces Zap70 phosphorylation to the same level as in unstimulated T cells; also recorded: reduces ZAP70 phosphorylation in anti-CD3–stimulated T cells to levels comparable with unstimulated T cells
- % inhibition (α 1A adrenoreceptor): 79.3%
- % inhibition (Muscarinic M2): 81.3%
- % inhibition (Muscarinic M1): 95.0%
- % inhibition (Dopamine D1): 85.3%
- inhibition at 10 μM [2]: 66.3%
- % inhibition (Histamine H3): 95.1%
- % inhibition (5-HT2B): 80.1%
- inhibition of T cell proliferation (T cell proliferation): inhibit T cell proliferation specifically in response to weak antigens
- physical interaction with Nck1-SH3.1 (SPR and NMR) (Nck1-SH3.1 [3]): appeared to support physical interaction of AX-024 with the Nck1-SH3.1 domain
- direct binding to immobilized Nck1-SH3.1 by SPR (Nck1-SH3.1 [4]): does not bind to Nck1-SH3.1; also recorded: no direct binding of AX-024 to immobilized Nck1-SH3.1 was detectable
